Structures are written as SMILES.

Assay type in all cases: cell-based
For assay [1], the system named is MV-4-11 human acute myeloid leukemia cell line. The assay can be described thus: Second cell viability assay in MV-4-11 (Cell Titer-Glo). The following applies: Homo sapiens; MV4-11, Cell Titer-Glo, 72 hrs; read-out: Cell Viability IC50 in MV4-11 cells. Put shortly:
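MV-4-11 cells seeded at 15000 per well, rested 1 h, then treated with 8 concentrations (e.g. 5 nM–10 µM) for 72 h at 37 °C, 5% CO2. Viability by Cell Titer-Glo luminescence; IC50 from sigmoidal variable-slope nonlinear regression.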
(ATP-based viability assays read luminescence as a measure of living cells.)

For assay [2], the system named is 22Rv1 human prostate carcinoma cell line. The assay is described as follows: Cell viability assay (resazurin). The note with it: 22Rv1, resazurin, 72 hrs. Here is the method:
(§1) The effects of test compounds were also studied in the 22Rv1 human prostate carcinoma and MDA-MB-231 human breast adenocarcinoma cell lines. The cells were harvested during the logarithmic growth period and counted. Cells were seeded at a count of 3000 cells (22Rv1) or 5000 cells (MDA-MB-231) per well/100 μl in a 96-well plate. After seeding, cells were incubated at 37° C., 5% CO2 for 24 hr. Cells were treated with test compounds at 8 concentrations within a desired concentration range (e.g. 5 nM-10 μM) for generation of dose response curves by preparing serial dilutions of the test compound in DMSO which were further diluted with culture medium and then added to each well. The plate was further incubated for another 72 hrs (22Rv1) or 96 hrs (MDA-MB-231) in humidified incubator at 37° C. and 5% CO2. The assay was terminated by addition of resazurin (# R7017, Sigma). The plate was incubated for 4 hr at 37° C., 5% CO2 and fluorescence was measured using excitation and emission wavelengths of 535 and 590 nm, respectively. Cell viability data were plotted using GraphPad Prism (GraphPad Software, Inc., San Diego, Calif.). In addition, a nonlinear regression model with a sigmoidal dose response and variable slope within GraphPad Prism was used to calculate the IC50 value of individual test compounds.

Assay [3] relates to MDA-MB-231 human breast adenocarcinoma cell line. The assay can be described thus: Cell viability assay (resazurin). The following applies: MDA-MB-231, resazurin, 96 hrs. As to the method:
as §1

Another assay has as its system NOMO-1. The assay can be described thus: Cell viability in AML and DLBCL cell lines (Cell Titer-Glo). The note with it: Homo sapiens; NOMO-1, Cell Titer-Glo, 72 hr. As to the method: (§2) A panel of AML and DLBCL cell lines was profiled for effects of compound 3 on cell viability. Cells were seeded at a count of 3000-8000 cells per well/40 μl in a 384-well plate and incubated at 37° C., 5% CO2 overnight. Cells were treated with test compounds at 10 concentrations within a desired concentration range (e.g. 0.5 nM-10 μM) for generation of dose response curves by preparing serial dilutions of the test compound in DMSO which were further diluted with culture medium and then added in a volume of […] to each well. Cells were cultured in the presence of inhibitors at various concentrations for 72 hr. The assay was terminated by addition of […] Cell Titer-Glo reagent (Promega, Madison, Wis.) to each well. Contents were mixed, the plate was incubated for 10 min at room temperature and luminescence was measured. The IC50 value of each test compound was calculated with XLFit curve fitting software.

The test system of another assay is RS4; 11. The assay is described as above. The note with it: Homo sapiens, 11, Cell Titer-Glo, 72 hr. Here is the method: as §2
The next assay relates to SU-DHL6. Described as above. The note with it: Homo sapiens, SU-DHL-6, 72 hr. Here is the method: as §2
The subject of a further assay is WSU-DLCL2. The assay is described as above. The note with it: Homo sapiens, WSUDLCL2, 72 hr. Here is the method:
as §2

Another assay concerns OCI-AML3. Described as above. The following applies: Homo sapiens, OCI-AML-3, 72 hr. As to the method: as §2
For the next assay, the system named is KOPN-8. Described as above. The note with it: Homo sapiens; KOPN-8, Cell Titer-Glo, 72 hr. Here is the method: as §2
The next assay deals with SU-DHL4. The assay is described as above. The following applies: Homo sapiens, SU-DHL-4, 72 hr. As to the method: as §2
For the next assay, the system named is KG-1a. Described as above. The note with it: Homo sapiens, 72 hr. Here is the method:
as §2

Another assay deals with THP-1. The assay is described as follows: Cell viability assay (XTT). The following applies: Homo sapiens; THP-1, XTT, up to 72 hr. As to the method:
(§3) A panel of BET-sensitive and insensitive cell lines were profiled for effect on cell viability using compound 3. Cells were cultured in the presence of inhibitors at various concentrations for up to 72 hr. For cell viability assays as previously described (Guo Y, et al. 2012. J Hematol Oncol 5:72; Chen Y, et al. 2016. Oncogene 35:2971-8), 0.08 mg/ml XTT (2,3-bis-(2-methoxy-4-nitro-5-sulfophenyl)-2H-tetrazolium-5-carboxanilide) and 8 μM phenazine methyl sulfate (PMS) were added to the cells at the end of the test compound or vehicle treatment duration, and absorbance at 450 nm was measured after 3 hr incubation at 37° C. Assays were performed in triplicates. IC50 values were estimated using a non-linear mixed effect model fitting a sigmoid curve to the experimental dose response data (Vis D J, et al. 2016. Pharmacogenomics 17(7):691-700).
(Tetrazolium dyes change colour on reduction, which living cells bring about.)

In a further assay the test system is MV-4-11. The assay can be described thus: Cell viability assay (XTT). The following applies: Homo sapiens, MV4-11; MV-4-11, XTT, up to 72 hr. Here is the method: as §3
The test system of the next assay is Molt-4. The assay can be described thus: Cell viability assay (XTT). The note with it: Homo sapiens; Molt-4, XTT, up to 72 hr. Here is the method:
as §3

The next assay relates to Jurkat. The assay is described as follows: Cell viability assay (XTT). The note with it: Homo sapiens, up to 72 hr. Here is the method: as §3

As a reminder, the IC50 is the midpoint of a concentration-inhibition curve. For the compound `C=CS(=O)(=O)Nc1ccc(Oc2ccc(F)cc2F)c(-c2cc(NC)c(=O)n(C)c2)c1` [Compound 3, N-(4-(2,4-difluorophenoxy)-3-(1-methyl-5-(methylamino)-6-oxo-1,6-dihydropyridin-3-yl)phenyl)ethenesulfonamide], the IC50 in assay [1] came to 28 nM; in [2], 58 nM; in assay [3] it was 82 nM; in the assay on NOMO-1, 205 nM; with RS4; 11 it was 128 nM; with SU-DHL6, 47 nM. The IC50 is 84 nM in the assay on WSU-DLCL2; 50 nM with OCI-AML3; 9 nM with KOPN-8; 22 nM in the assay with SU-DHL4; 285 nM with KG-1a; 250 nM in the assay with THP-1. Further, the IC50 in the assay on MV-4-11 amounted to 100 nM; with Molt-4, 300 nM; in the assay with Jurkat, 6000 nM.
